Test results as given in ChEMBL document CHEMBL5352469, “Solubility-driven optimization of benzothiopyranone salts leading to a preclinical candidate with improved pharmacokinetic properties and activity against Mycobacterium tuberculosis” (Eur J Med Chem, 2023).
In brackets after ≈: the same amount, converted by molar mass.

Legend:
[1] = Chemical stability of the compound under 4500 +/- 500 lx light condition by measuring compound purity incubated for 10 days by HPLC-PDA method relative to initial purity; assay type: physicochemical; details: 240 h; time 10 day
[2] = Cmax in Balb/c mouse at 50 mg/kg, po measured upto 24 hrs by LC/MS/MS analysis; assay type: ADME, organism-based; parameters: time < 24 hrs, dose 50 mg/kg, route po; details: in vivo
[3] = Elimination half life in Balb/c mouse at 5 mg/kg, iv measured upto 24 hrs by LC/MS/MS analysis; assay type: ADME, organism-based; details: in vivo, read-out: beta t1/2 (converted)
[4] = Chemical stability of the compound under 92.5% humidity by measuring compound purity incubated for 10 days by HPLC-PDA method relative to initial purity; assay type: physicochemical; details: 240 h; time 10 day
[5] = Cmax in Balb/c mouse at 5 mg/kg, iv measured upto 24 hrs by LC/MS/MS analysis; assay type: ADME, organism-based; parameters: dose 5 mg/kg, time < 24 hrs, route iv; details: in vivo
[6] = Chemical stability of the compound under 60 degree C high temperature by measuring compound purity incubated for 10 days by HPLC-PDA method analysis relative to initial purity; assay type: physicochemical; details: 240 h; time 10 day
[7] = AUC (0 to t) in Balb/c mouse at 5 mg/kg, iv measured upto 24 hrs by LC/MS/MS analysis; assay type: ADME, organism-based; parameters: time < 24 hrs, dose 5 mg/kg, route iv; details: in vivo; for AUC(0-t) at 24 h: Balb/c
[8] = AUC (0 to t) in Balb/c mouse at 50 mg/kg, po measured upto 24 hrs by LC/MS/MS analysis; assay type: ADME, organism-based; parameters: dose 50 mg/kg, time < 24 hrs, route po; details: in vivo; for AUC(0-t) at 24 h: Balb/c
[9] = Oral bioavailability in Balb/c mouse at 50 mg/kg measured upto 24 hrs by LC/MS/MS analysis; assay type: ADME, organism-based; details: in vivo; for bioavailability: Balb/c
[10] = Aqueous solubility of compound by HPLC-PDA method; assay type: physicochemical; details: buffer; read-out: solubility
[11] = Elimination half life in Balb/c mouse at 50 mg/kg, po measured upto 24 hrs by LC/MS/MS analysis; assay type: ADME, organism-based; details: in vivo, read-out: beta t1/2 (converted)
[12] = Apparent permeability across apical to basolateral side in human Caco-2 cells incubated for 21 days; assay type: ADME, cell-based; details: time 21 day
[13] = Tmax in Balb/c mouse at 50 mg/kg, po measured upto 24 hrs by LC/MS/MS analysis; assay type: ADME, organism-based; details: in vivo
[14] = Apparent permeability across basolateral to apical side in human Caco-2 cells incubated for 21 days; assay type: ADME, cell-based; details: time 21 day
[15] = AUC (0 to t) in Sprague-Dawley rat at 5 mg/kg, iv measured upto 24 hrs by LC/MS/MS analysis; assay type: ADME, organism-based; parameters: time < 24 hrs, dose 5 mg/kg, route iv; details: in vivo
[16] = system: Mycobacterium tuberculosis; assay: Antibacterial activity against Mycobacterium tuberculosis H37Rv BALB/c mouse model assessed as reduction in CFU in lungs at 25 mg/kg via oral gavage for 30 days (reference value: 5.92 +/-0.29); assay type: functional; details: time 30 day
[17] = Cmax in Sprague-Dawley rat at 50 mg/kg, po measured upto 24 hrs by LC/MS/MS analysis; assay type: ADME, organism-based; parameters: time < 24 hrs, dose 50 mg/kg, route po; details: in vivo
[18] = Efflux ratio of apparent permeability across basolateral to apical side over apical to basolateral side in human Caco-2 cells; assay type: ADME, cell-based
[19] = Lipophilicity, log D of the compound in octanol/water at pH 4.0 incubated for 72 hrs under shaking condition by shake flask based HPLC-PDA method; assay type: physicochemical; details: pH 4, 72 h
[20] = Clearance in Sprague-Dawley rat at 5 mg/kg, iv measured upto 24 hrs by LC/MS/MS analysis; assay type: ADME, organism-based; details: in vivo
[21] = AUC (0 to infinity) in Sprague-Dawley rat at 50 mg/kg, po measured upto 24 hrs by LC/MS/MS analysis; assay type: ADME, organism-based; parameters: time < 24 hrs, dose 50 mg/kg, route po; details: in vivo
[22] = system: Mycobacterium tuberculosis; assay: Antibacterial activity against Mycobacterium tuberculosis H37Rv BALB/c mouse model assessed as reduction in CFU in lungs at 50 mg/kg via oral gavage for 30 days (reference value: 5.92 +/-0.29); assay type: functional; details: time 30 day
[23] = system: Mycobacterium tuberculosis; assay: Antibacterial activity against Mycobacterium tuberculosis H37Rv BALB/c mouse model assessed as reduction in CFU in lungs at 100 mg/kg via oral gavage for 30 days (reference value: 5.92 +/-0.29); assay type: functional; details: time 30 day
[24] = AUC (0 to infinity) in Sprague-Dawley rat at 5 mg/kg, iv measured upto 24 hrs by LC/MS/MS analysis; assay type: ADME, organism-based; parameters: time < 24 hrs, dose 5 mg/kg, route iv; details: in vivo
[25] = Lipophilicity, log D of the compound in octanol/water at pH 7.6 incubated for 72 hrs under shaking condition by shake flask based HPLC-PDA method; assay type: physicochemical; details: pH 7.6, 72 h
[26] = Lipophilicity, log D of the compound in octanol/water at pH 2.0 incubated for 72 hrs under shaking condition by shake flask based HPLC-PDA method; assay type: physicochemical; details: pH 2, 72 h
[27] = Lipophilicity, log P of the compound in octanol/water incubated for 72 hrs under shaking condition by shake flask based HPLC-PDA method; assay type: physicochemical; details: 72 h
[28] = system: Mycobacterium tuberculosis; assay: Antibacterial activity against Mycobacterium tuberculosis H37Rv BALB/c mouse model assessed as reduction in delta CFU in lungs at 50 mg/kg via oral gavage for 30 days; assay type: functional; details: time 30 day
[29] = MRT (0 to infinity) in Sprague-Dawley rat at 5 mg/kg, iv measured upto 24 hrs by LC/MS/MS analysis; assay type: ADME, organism-based; details: in vivo
[30] = AUC (0 to t) in Sprague-Dawley rat at 50 mg/kg, po measured upto 24 hrs by LC/MS/MS analysis; assay type: ADME, organism-based; parameters: dose 50 mg/kg, time < 24 hrs, route po; details: in vivo
[31] = Elimination half life in Sprague-Dawley rat at 50 mg/kg, po measured upto 24 hrs by LC/MS/MS analysis; assay type: ADME, organism-based; details: in vivo, read-out: beta t1/2 (converted)
[32] = Cmax in Sprague-Dawley rat at 5 mg/kg, iv measured upto 24 hrs by LC/MS/MS analysis; assay type: ADME, organism-based; parameters: time < 24 hrs, dose 5 mg/kg, route iv; details: in vivo
[33] = Elimination half life in Sprague-Dawley rat at 5 mg/kg, iv measured upto 24 hrs by LC/MS/MS analysis; assay type: ADME, organism-based; details: in vivo, read-out: beta t1/2 (converted)
[34] = Tmax in Sprague-Dawley rat at 50 mg/kg, po measured upto 24 hrs by LC/MS/MS analysis; assay type: ADME, organism-based; details: in vivo
[35] = Oral bioavailability in Sprague-Dawley rat at 50 mg/kg measured upto 24 hrs by LC/MS/MS analysis; assay type: ADME, organism-based; details: in vivo
[36] = system: Mycobacterium tuberculosis; assay: Antibacterial activity against Mycobacterium tuberculosis H37Rv BALB/c mouse model assessed as reduction in delta CFU in lungs at 100 mg/kg via oral gavage for 30 days; assay type: functional; details: time 30 day
[37] = Lipophilicity, log D of the compound in octanol/water at pH 6.8 incubated for 72 hrs under shaking condition by shake flask based HPLC-PDA method; assay type: physicochemical; details: pH 6.8, 72 h
[38] = MRT (0 to infinity) in Sprague-Dawley rat at 50 mg/kg, po measured upto 24 hrs by LC/MS/MS analysis; assay type: ADME, organism-based; details: in vivo
[39] = system: Mycobacterium tuberculosis; assay: Antibacterial activity against Mycobacterium tuberculosis H37Rv BALB/c mouse model assessed as reduction in delta CFU in lungs at 25 mg/kg via oral gavage for 30 days; assay type: functional; details: time 30 day

SMILES: O=C(O)C[C@H](O)C(=O)O.O=c1cc(N2CCN(CC3CCCCC3)CC2)sc2c([N+](=O)[O-])cc(C(F)(F)F)cc12
- Stability [1]: 90.6%
- Cmax [2]: 979 ng/mL
- half-life [3]: 5.9 h
- Stability [4]: 98.3%
- Cmax [5]: 3950 ng/mL
- Stability [6]: 98.2%
- AUC(0-t) at 24 h [7]: 2730 ng·h/mL
- AUC(0-t) at 24 h [8]: 7280 ng·h/mL
- bioavailability [9]: 27.7%
- solubility [10]: 158 µg/mL
- half-life [11]: 6 h
- Papp A→B [12]: 7.78 ×10⁻⁶ cm/s
- Tmax [13]: 1 h
- Papp B→A [14]: 0.28 ×10⁻⁶ cm/s

SMILES: O=c1cc(N2CCN(CC3CCCCC3)CC2)sc2c([N+](=O)[O-])cc(C(F)(F)F)cc12
- Stability [1]: 98.2%
- Cmax [2]: 588 ng/mL
- AUC(0-t) at 24 h [15]: 1540 ng·h/mL
- half-life [3]: 6.54 h
- Stability [4]: 100%
- Activity [16]: 3.64 log10CFU
- Cmax [17]: 109 ng/mL
- Cmax [5]: 8240 ng/mL
- efflux ratio [18]: 0.1
- Stability [6]: 100%
- logD [19]: 3.72
- clearance [20]: 53.8 mL/min/kg
- AUC(0-inf) [21]: 769 ng·h/mL
- Activity [22]: 2.34 log10CFU
- Activity [23]: 2.19 log10CFU
- AUC(0-inf) [24]: 1580 ng·h/mL
- logD [25]: > 4.32
- AUCt ([7]; 24 h): 4954 ng·h/mL
- logD [26]: 1.29
- AUCt ([8]; 24 h): 1581 ng·h/mL
- logP [27]: 3.71
- Activity [28]: 3.58 log10CFU
- MRT inf [29]: 2.99 h
- AUC(0-t) at 24 h [30]: 741 ng·h/mL
- F ([9]; po, 50 mg/kg, 24 h): 13.1%
- half-life [31]: 3.83 h
- solubility [10]: 0.15 µg/mL (≈ 0.329 µM)
- Cmax [32]: 3560 ng/mL
- half-life [11]: 7.25 h
- half-life [33]: 8.27 h
- Tmax [34]: 3.67 h
- Papp A→B [12]: 11.8 ×10⁻⁶ cm/s
- Tmax [13]: 0.5 h
- bioavailability [35]: 4.87%
- Activity [36]: 3.73 log10CFU
- logD [37]: > 4.3
- MRT inf [38]: 5.94 h
- Papp B→A [14]: 0.69 ×10⁻⁶ cm/s
- Activity [39]: 2.28 log10CFU

SMILES: NNC(=O)c1ccncc1 [ISONIAZID]
- Activity [16]: 3.64 log10CFU
- Activity [39]: 3.89 log10CFU

SMILES: O=C(O)/C=C/C(=O)O.O=C(O)/C=C/C(=O)O.O=C(O)/C=C/C(=O)O.O=c1cc(N2CCN(CC3CCCCC3)CC2)sc2c([N+](=O)[O-])cc(C(F)(F)F)cc12.O=c1cc(N2CCN(CC3CCCCC3)CC2)sc2c([N+](=O)[O-])cc(C(F)(F)F)cc12
- Cmax [2]: 542 ng/mL
- half-life [3]: 6.98 h
- Cmax [5]: 2760 ng/mL
- AUC(0-t) at 24 h [7]: 1990 ng·h/mL
- AUC(0-t) at 24 h [8]: 3440 ng·h/mL
- bioavailability [9]: 18.9%
- solubility [10]: 132 µg/mL
- half-life [11]: 8.03 h
- Papp A→B [12]: 7.79 ×10⁻⁶ cm/s
- Tmax [13]: 0.67 h
- Papp B→A [14]: 0.11 ×10⁻⁶ cm/s
